Measured values from patent publication US12233066B2, “Combinations of inhibitors of influenza virus replication” (COCRYSTAL PHARMA, INC., priority 2018, dated 2025).
Read-outs that look alike come from different tables or passages of the source.

How the values were obtained:
[1] = tested on: influenza B; experiment: Antiviral activity of the combinations against influenza B; format: cell-based; details: combination with Compound 1
[2] = tested on: Influenza virus A/PR/8/34 (H1N1); experiment: Cytopathic effect (CPE) assay of two-drug combinations in MDCK cells, MacSynergy II analysis; format: cell-based
[3] = combination with Compound 1, A/PR/8/34 (H1N1) in MDCK cells, 0.125-8x EC50 checkerboard, MacSynergy II

| SMILES | Antiviral activity against influenza B [1] | Combination effect [2] | Synergistic effect in influenza antiviral CPE assays [2] | Synergy volume (95%) [2] | Antagonism volume (95%) [2, 3] | Synergy volume (95%) [2, 3] | Combination effect ([2]; combination with Compound 1, A/PR/8/34 (H1N1) in MDCK cells, MacSynergy II) | Synergistic effect in influenza antiviral CPE assays ([2]; combination with Compound 1, IFV A/PR/8/34 (H1N1)) |
| --- | --- | --- | --- | --- | --- | --- | --- | --- |
| NC(=O)c1nc(F)c[nH]c1=O [Favipiravir, favipiravir] | exhibit antiviral activity | Strong synergism | strong synergistic effect | 413.85 | −3.15 | – | – | – |
| CCC(CC)O[C@@H]1C=C(C(=O)O)C[C@H](N)[C@H]1NC(C)=O [Oseltamivir acid, oseltamivir acid] | exhibit antiviral activity | – | – | – | −9.19 | 269.37 | Strong synergism | strong synergistic effect |
| O=C1c2c(O)c(=O)ccn2N([C@@H]2c3ccccc3SCc3c2ccc(F)c3F)[C@@H]2COCCN12 [Baloxavir, baloxavir] | – | – | – | 285.84 | −12.28 | – | – | – |
